# In patent KR20130112248A, “피라졸로피리미딘 유도체 화합물, 이를 포함하는 산화질소 생성 억제용 조성물 및 뇌신경 질환 예방 및 치료용 약학적 조성물” (한국과학기술연구원, priority 2012, dated 2013):
# Test system: NO production in BV-2 cells [NO 생성; BV-2 세포]
# Assay: Nitric oxide (NO) quantification (nitrite, Griess reaction) in LPS-activated BV-2 cells
# Format: cell-based
# Conditions: 20 μM, LPS 0.2 ㎍/mL, 24 h co-treatment, nitrite by Griess at 540 nm; for activity at 20 µM: Mus musculus, BV-2, 24 h
Molecule,activity at 20 µM [%],NO (% of LPS)
"CC(Nc1nc(S(C)(=O)=O)nc2c1cnn2-c1ccccc1)C1CCCCC1 (centres unmarked) [화합물 23f, N-(1-사이클로헥실에틸)-6-(메틸설포닐)-1-페닐-1H-피라졸로[3,4-d]피리미딘-4-아민]",23 ± 0.6,
"COc1cccc(CNc2nc(SC)nc3c2cnn3C(C)(C)C)c1 [화합물 17k, N-(3-메톡시벤질)-1-t-뷰틸-6-(methylthio)-1H-피라졸로[3,4-d]피리미딘-4-아민]",51 ± 5,
"COc1ccc(CNc2nc(SC)nc3c2cnn3-c2ccccc2)cc1 [화합물 15c, 1-페닐-4-(4-메톡시벤질)아미노-6-(메틸티오)피라졸로[3,4-d]피리미딘]",61 ± 6,
"CSc1nc(NC2CCCCC2)c2cnn(-c3ccccc3)c2n1 [화합물 15q, 1-페닐-4-사이클로헥실아미노-6-(메틸티오)피라졸로[3,4-d]피리미딘]",54 ± 1,
"CSc1nc(NCc2ccc(F)cc2)c2cn[nH]c2n1 [6d, 4-(4-플루오로벤질)아미노-6-(메틸티오)피라졸로[3,4-d]피리미딘]",84 ± 8,
"C=CCNc1nc(SC)nc2c1cnn2C [화합물 12i, 1-메틸-4-알릴아미노-6-(메틸티오)피라졸로[3,4-d]피리미딘]",101 ± 3,
"CSc1nc(N(CCO)CCO)c2cnn(C)c2n1 [12c, 1-메틸-4-비스(1-하이드록시에틸)아미노-6-(메틸티오)피라졸로[3,4-d]피리미딘]",115 ± 6,
"CCCCNc1nc(SC)nc2c1cnn2C(C)(C)C [화합물 17l, 1-t-뷰틸-N-뷰틸-6-(메틸티오)-1H-피라졸로[3,4-d]피리미딘-4-아민]",82 ± 9.5,
"CSc1nc(NCc2ccc(C)cc2)c2cnn(-c3ccccc3)c2n1 [화합물 15p, 1-페닐-4-(4-메틸벤질)아미노-6-(메틸티오)피라졸로[3,4-d]피리미딘]",71 ± 5,
"CSc1nc(NCc2ccccc2)c2c(-c3ccccc3)nn(Cc3ccccc3)c2n1 [32a, 1-벤질-3-페닐-4-벤질아미노-6-(메틸티오)피라졸로[3,4-d]피리미딘]",53 ± 3,
"1-t-뷰틸-4-(1-하이드록시에틸)아미노-6-(메틸티오)피라졸로[3,4-d]피리미딘 [화합물 17d]",,93±2 % of LPS
"CSc1nc(Cl)c2cnn(CCOC3CCCCO3)c2n1 (centres unmarked) [5c, 1-[2-(테트라하이드로피란-2-일옥시)에틸]-4-클로로-6-(메틸티오)피라졸로[3,4-d]피리미딘]",49 ± 9,
"COc1ccccc1CNc1nc(SC)nc2c1cnn2CCNC(=O)OC(C)(C)C [화합물 14c, 1-(N-t-Boc-아미노에틸)-4-(2-메톡시벤질)아미노-6-(메틸티오)피라졸로[3,4-d]피리미딘]",54 ± 5,
"CSc1nc(NCc2ccc(Cl)cc2)c2cnn(C(C)(C)C)c2n1 [화합물 17j, N-(4-클로로벤질)-1-t-뷰틸-6-(methylthio)-1H-피라졸로[3,4-d]피리미딘-4-아민]",19 ± 3.9,
"CSc1nc(N[C@H](C)C2CCCCC2)c2cnn(-c3ccccc3)c2n1 [화합물 15r, (R)-1-페닐-4-(1-사이클로헥실에틸)아미노-6-(메틸티오)피라졸로[3,4-d]피리미딘]",41 ± 1,
"CSc1nc(NCc2ccccn2)c2c(-c3ccccc3)nn(-c3ccccc3)c2n1 [화합물 31f, 1-페닐-3-페닐-4-(피리딘-2-일)메틸아미노-6-(메틸티오)피라졸로[3,4-d]피리미딘]",100 ± 5,
"COc1ccc(CNc2nc(SC)nc3c2cnn3CCNC(=O)OC(C)(C)C)cc1 [화합물 14j, 2-(4-(4-메톡시벤질아미노)-6-(메틸티오)-1H-피라졸로[3,4-d]피리미딘-1-일)에틸카바메이트]",25.8 ± 3,
"COc1ccccc1CNc1nc([S+](C)[O-])nc2c1cnn2-c1ccccc1 (centres unmarked) [화합물 22b, N-(2-메톡시벤질)-6-(메틸설파이닐)-1-페닐-1H-피라졸로[3,4-d]피리미딘-4-아민]",28 ± 4.1,
"CSc1nc(NCc2ccc(F)cc2)c2cnn(C)c2n1 [12f, 1-메틸-4-(4-플루오로벤질)아미노-6-(메틸티오)피라졸로[3,4-d]피리미딘]",72 ± 2,
"CCCCNc1nc(SC)nc2c1cnn2-c1ccccc1 [화합물 15t, 1-페닐-4-n-뷰틸아미노-6-(메틸티오)피라졸로[3,4-d]피리미딘]",48 ± 8,
"CSc1nc(NCc2ccc(F)cc2)c2cnn(CCO)c2n1 [화합물 27b, 1-(1-하이드록시에틸)-4-(4-플루오로벤질)벤질아미노-6-(메틸티오)피라졸로[3,4-d]피리미딘]",73 ± 10,
"C=CCn1ncc2c(NCc3ccc(Cl)cc3)nc(SC)nc21 [화합물 13f, N-(4-클로로벤질)-1-알릴-6-(메틸티오)-1H-피라졸로[3,4-d]피리미딘-4-아민]",11 ± 2.9,
"CSc1nc(N(CCO)CCO)c2cnn(Cc3ccccc3)c2n1 [화합물 16i, 1-벤질-4-비스(1-하이드록시에틸)아미노-6-(메틸티오)피라졸로[3,4-d]피리미딘]",79 ± 3,
